Assay results published in patent US12410152B2, “Oxazole and thioazole-type cullin ring ubiquitin ligase compounds and uses thereof” (Proxygen GmbH, priority 2019, dated 2025).

Legend:
[1] = target: T1, CCNK and DDB1 (Homo sapiens, UniProt O75909+Q16531); assay: Drug affinity chromatography with IC021313.2^NH2-coupled beads in KBM7 lysates; type: binding; conditions: KBM7 whole cell lysates; competed by THZ531 100 μM
T1 construct: endogenous in cells; host or cells: KBM7 cells (lysate in A24, intact cells in A25)
Excerpt: Regarding the first strategy, a variant of IC021313.2 associated with a free amine and named IC021313.2^NH2 allowed immobilizing IC021313.2^NH2 on sepharose beads, and purification of interacting proteins out of whole cell lysates (FIG. 20 a, b). […] Treating lysates with THZ531 and thus covalently blocking the active sites on CDK12/13 prevented DDB1 and CCNK enrichment via the IC021313.2^NH2 resin. This is in line with the fact that cellular co-treatment with THZ531 was able to abrogate drug-induced CCNK degradation (FIG. 19 d).
100 μL NHS-Activated Sepharose 4 Fast Flow (GE Life Sciences, 17090601) per condition were washed with 500 μL DMSO 3 times (3 min 800 rpm centrifugation at RT). Beads were resuspended in 50 μL DMSO and 2.5 μL IC021313.2^NH2 10 mM and 0.75 μL TEA (Sigma-Aldrich, T0886) were added. […]
200 million KBM7 cells were resuspended in 2 mL lysis buffer ([…] pH 7.5, 0.2% NP-40, 5% glycerol, 1.5 mM MgCl2, 100 mM NaCl, 1 mM EDTA) supplemented with protease inhibitors (Thermo Scientific, 78437) and benzonase (Merck, US170746-370746) and incubated on ice for 30 min. After centrifugation (full-speed, 4° C., 30 min) supernatant was transferred to a new tube and extracted protein measured with BCA (Fisher Scientific, 23225). […]

[2] = system: KBM7 cells (DCAF15 knockout); assay: Cell viability, KBM7 DCAF15 knockout vs WT (72 hour treatment); type: cell-based, human
Method: FIG. 18. (A) Cellular viability of KBM7 cells (WT or UBE2M mutant) after treatment with dCeMM.1. (72 hour treatment) (B) cellular viability of KBM7 cells (WT or DCAF15 knockout) after dose-ranging treatment with dCeMM.1 (72 hour treatment).
In another experiment, 2000 compounds were screened in a set up comparing their anti-proliferative effect in KBM7 cells modified in the UBE2M gene to wildtype KBM7 cells (FIG. 3). The PROTAC® ARV-771 was taken as positive control. Of note, among the identified hits was also dCeMM.1, which was similarly identified via the aforementioned DCAF15 restabilization assay.

[3] = target: T2, RBM39 (Homo sapiens, UniProt Q14498+Q66K64); assay: RBM39 levels by Western blot, WT vs DCAF15-deficient cells; type: cell-based; conditions: KBM7 12 or 16 h (dCeMM-1); 293T 10 h (dCeMM-2)
T2 construct: endogenous in cells; host or cells: KBM7 (WT or DCAF15 knockout) and 293T (DCAF15-HiBit or knockout)
Method: The known DCAF15 molecular glue indisulam was used as a positive control. In brief, indisulam is known to act as a DCAF15-dependent molecular glue that binds DCAF15 and induced proximity between DCAF15 and RBM39, leading to the degradation of the latter. […] Given the structural similarity to indisulam, it was assayed if the two new test compounds would similarly lead to the degradation of RBM39 in a DCAF15-dependent manner. Towards that end, their effect on RBM39 levels in wildype cells as well as cells deficient for DCAF15 levels was tested. KBM7 (WT or knockout, FIG. 15) as well as 293T cells (DCAF15-HiBit overexpression vs knockout, see FIG. 16) were tested in various conditions of dCEMM.1 and/or dCEMM.2, comparing their effect to indisulam.
PBS-washed cell pellets were lysed in 50 mM Tris pH 7.9, 8M Urea and 1% CHAPS and incubated with shaking at 4° C. for at least 30 min. 20 μg of supernatants were run and transferred for detection. […]

[4] = system: UBE2M mutant KBM7 cells; assay: cells; type: cell-based; conditions: KBM7 UBE2M mutant vs WT
Method: KBM7 cells with the specified genetic backgrounds were grown in IMDM supplemented with 10% FBS and 1% penicillin/streptomycin (pen/strep). AsPC1, HCT116, NCI-H446 and 293T cells were grown in DMEM 10% FBS and 1% pen/strep. MV4; 11, Jurkat and Be (2) C cells were grown in RPMI 10% FBS 1% pen/strep. KBM7, AsPC1 and HCT116 cells expressing Cas9 were generated using the plasmid Lenti_Cas9_Blasti (Addgene #52962). The lentiviral plasmid lentiGuide-Puro (Addgene #52963) was used to express sgRNAs against the genes UBE2M (in KBM7-Cas9, AsPC1-Cas9 and HCT116-Cas9 cells), UBE2G1 (in KBM7-Cas9 cells) and […] (in KBM7-Cas9 cells). The lentiviral plasmid lentiGuide-Puro-IRES-mCherry (modified from Addgene #52963) was used to express sgRNAs against CUL4A (in KBM7-Cas9 cells). The lentiviral plasmid pLenti-PGK-Hygro-DEST-UBE2M was generated by Gateway cloning (empty destination vector Addgene #19066), and used to generate UBE2M^resc KBM7 cells. […]
Following this observation, it was rationalized that novel small molecule degraders can be identified in an unbiased manner, simply by searching for compounds that lose activity in the absence of UBE2M. 2000 small molecules, mostly of unknown function/target, were tested for their antiproliferative effects in human leukemia cells (KBM7). These cells were either transduced with a control sgRNA (KBM7WT), or with an sgRNA targeting UBE2M, leading to a hypomorph (deletion of six amino acids) with a functional impairment (UBE2Mmut).
Finally, a total of structurally similar analogs was tested to unravel structure-activity relationship of the identified molecules. To that end, their anti-cancer activity was assayed in WT cells, as well as KBM7 cells deficient in genes identified in the genome-wide CRISPR screens (UBE2M, CUL4B, UBE2G1). Moreover, the compounds were also tested in AsPC1 pancreatic cancer cells (WT or UBE2Mmut), MV4; 11 and Jurkat leukemia cells, Be (2) C neuroblastoma cells, and NCI-H446 lung cancer cells (Table 3 at the end of this document)
KBM7^WT, mutant KBM7 clones (UBE2M^mut, UBE2M^resc, UBE2G1^mut CUL4A^mut, CUL4B^mut), and 3-day doxycycline pretreated KBM7^iCas9_sgDDB1 cells were seeded at a cell density of 50,000 cells/mL in 96-well plates with DMSO or drug, in triplicates. Drugs used: IC020772.1/IC020772.1X, IC021313.2/IC021313.2X, T6938051/T6938051X or THZ531. Cells were treated for 3 days, after which cell viability was assessed according to manufacturer's protocol (CellTiter Glo, Promega G7570). Survival curves and EC50 values were calculated by best-fit analysis of the log 10 drug concentration to fold change of drug-treated cells over DMSO-treated cells. All survival assays included technical triplicates per sample, per experiment.

[5] = target: T3, DCAF15 (Homo sapiens, UniProt Q66K64); assay: DCAF15 stabilization, live-cell HiBit/LgBit bioluminescence screen; type: cell-based; conditions: 10 μM, 293T cells expressing HiBit-DCAF15
T3 construct: expressed in transfected cells; host or cells: 293T cells, DCAF15 knocked out, additionally transduced with LgBit
Excerpt: Subsequently, in this context, the E3 ligase substrate receptor (SR) stabilization approach was employed in order to identify novel chemical matter that can bind and chemically re-program the substrate receptor DCAF15. To be able to screen a collection of around 8000 small-molecules, a cellular system was developed that enabled monitoring of DCAF15 levels in live cells in multi-well format. To that end, DCAF15 was first knocked out in 293T cells via CRISPR/Cas9 technology. Then, DCAF15 was stably expressed as a HiBit® fusion protein in these cells. After further transducing these cells with LgBit, this allowed live-cell tracing of DCAF15 levels in 384 well format by measuring bioluminescence (FIG. 13).
In brief, cells were seeded at a concentration of 250′000 cells/ml in DMEM+10% FCS+25 mM Hepes. The luciferase substrate Endurazine was added at concentrations recommended by the manufacturer. Small-molecules were added at a concentration of 10 μM, and their effect on DCAF15 levels was assayed by continuous bioluminescent imaging (measurements were taken every 120 minutes). In total, 8000 compounds were tested.
The known DCAF15 molecular glue indisulam was used as a positive control. In brief, indisulam is known to act as a DCAF15-dependent molecular glue that binds DCAF15 and induced proximity between DCAF15 and RBM39, leading to the degradation of the latter. […]

[6] = target: T1, CCNK and DDB1; assay: Photo-affinity probe (IC021313.2^PAP) pulldown in intact KBM7 cells; type: binding; conditions: UV crosslink, competed by THZ531
Method: Regarding the second strategy, an alternative method for drug-target enrichment that is based on cellular treatment with IC021313.2^PAP, a functionalized analog of IC021313.2 containing a photoactive diazirine moiety and an alkyne handle was performed (FIG. 20 d). Following cellular treatment with IC021313.2^PAP, cells were UV crosslinked, lysed and the alkyne handle in IC021313.2^PAP was biotinylated for subsequent immobilization on streptavidin beads and identification of drug-interacting proteins via immunoblots. […] Also in this setup, covalently saturating the CDK12/13 binding site with THZ-531 competed with IC021313.2^PAP enrichment (FIG. 20 e, f). Collectively, both strategies indicate simultaneous engagement of the destabilized CCNK and the CRL4 adaptor protein DDB1 in a CDK12/13-dependent manner.
IC021313.2^NH2 was conjugated to a constant side chain consisting of a photosensitive diazirine group and an alkyne handle.
20 million KBM7^WT cells per condition were pre-treated with either DMSO or 100 μM THZ531 (competition condition) for 1h in the presence of 10 μM carfilzomib (Selleckchem, S2853) in serum-free IMDM medium (3 ml/20 million cells/10 cm dish). Then, cells were treated with 10 μM IC020772.1^PAP for 1h. […] Eluates were analyzed by WB. Quantification was performed with ImageJ.

T1 sequence (O75909 whole entry): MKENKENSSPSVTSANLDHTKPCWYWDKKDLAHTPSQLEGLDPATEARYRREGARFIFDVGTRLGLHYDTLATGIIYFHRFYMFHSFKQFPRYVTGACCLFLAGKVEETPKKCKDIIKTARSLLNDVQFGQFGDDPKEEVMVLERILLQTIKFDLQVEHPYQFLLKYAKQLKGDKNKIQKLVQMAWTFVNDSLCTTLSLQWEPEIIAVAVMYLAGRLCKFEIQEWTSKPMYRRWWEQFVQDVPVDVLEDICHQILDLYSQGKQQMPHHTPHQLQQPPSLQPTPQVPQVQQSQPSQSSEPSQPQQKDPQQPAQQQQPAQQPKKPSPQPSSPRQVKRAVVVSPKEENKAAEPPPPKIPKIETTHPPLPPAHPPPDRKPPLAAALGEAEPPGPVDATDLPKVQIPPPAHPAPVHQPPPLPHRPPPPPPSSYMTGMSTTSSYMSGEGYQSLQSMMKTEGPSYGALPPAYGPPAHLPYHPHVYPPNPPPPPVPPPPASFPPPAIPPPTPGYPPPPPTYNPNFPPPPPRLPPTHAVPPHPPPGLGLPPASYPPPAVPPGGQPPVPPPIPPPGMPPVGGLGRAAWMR
T1 sequence (Q16531 2-1140 limits assumed): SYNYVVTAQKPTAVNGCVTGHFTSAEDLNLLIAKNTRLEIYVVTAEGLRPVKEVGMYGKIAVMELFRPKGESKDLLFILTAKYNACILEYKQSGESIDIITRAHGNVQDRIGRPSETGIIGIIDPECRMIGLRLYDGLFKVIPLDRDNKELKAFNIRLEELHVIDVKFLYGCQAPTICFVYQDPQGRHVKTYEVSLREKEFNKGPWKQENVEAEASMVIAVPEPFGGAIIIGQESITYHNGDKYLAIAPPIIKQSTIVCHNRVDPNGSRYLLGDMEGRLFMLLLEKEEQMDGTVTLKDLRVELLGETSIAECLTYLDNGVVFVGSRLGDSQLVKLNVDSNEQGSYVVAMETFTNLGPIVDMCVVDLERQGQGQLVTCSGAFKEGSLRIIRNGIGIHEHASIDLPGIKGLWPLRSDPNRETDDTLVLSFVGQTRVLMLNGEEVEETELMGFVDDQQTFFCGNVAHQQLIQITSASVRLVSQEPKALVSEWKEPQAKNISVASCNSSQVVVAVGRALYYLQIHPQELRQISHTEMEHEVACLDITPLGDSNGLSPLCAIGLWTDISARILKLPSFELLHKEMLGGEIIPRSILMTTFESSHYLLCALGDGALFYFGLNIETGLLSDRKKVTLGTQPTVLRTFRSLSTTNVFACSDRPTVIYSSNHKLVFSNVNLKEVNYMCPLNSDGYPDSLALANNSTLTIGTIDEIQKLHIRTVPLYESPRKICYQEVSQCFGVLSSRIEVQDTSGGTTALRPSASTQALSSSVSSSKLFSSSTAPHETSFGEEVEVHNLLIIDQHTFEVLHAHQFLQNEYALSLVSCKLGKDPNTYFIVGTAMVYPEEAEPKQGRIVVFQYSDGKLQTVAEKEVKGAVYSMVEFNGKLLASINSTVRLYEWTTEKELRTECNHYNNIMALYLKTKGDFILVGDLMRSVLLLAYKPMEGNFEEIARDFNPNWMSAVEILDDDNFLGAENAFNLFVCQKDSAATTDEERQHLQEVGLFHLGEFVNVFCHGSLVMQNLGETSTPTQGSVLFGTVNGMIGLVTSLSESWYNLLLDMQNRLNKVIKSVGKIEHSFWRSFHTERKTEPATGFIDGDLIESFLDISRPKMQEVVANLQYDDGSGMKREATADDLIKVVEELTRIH
T1 sequence (Q9NYV4 whole entry partner): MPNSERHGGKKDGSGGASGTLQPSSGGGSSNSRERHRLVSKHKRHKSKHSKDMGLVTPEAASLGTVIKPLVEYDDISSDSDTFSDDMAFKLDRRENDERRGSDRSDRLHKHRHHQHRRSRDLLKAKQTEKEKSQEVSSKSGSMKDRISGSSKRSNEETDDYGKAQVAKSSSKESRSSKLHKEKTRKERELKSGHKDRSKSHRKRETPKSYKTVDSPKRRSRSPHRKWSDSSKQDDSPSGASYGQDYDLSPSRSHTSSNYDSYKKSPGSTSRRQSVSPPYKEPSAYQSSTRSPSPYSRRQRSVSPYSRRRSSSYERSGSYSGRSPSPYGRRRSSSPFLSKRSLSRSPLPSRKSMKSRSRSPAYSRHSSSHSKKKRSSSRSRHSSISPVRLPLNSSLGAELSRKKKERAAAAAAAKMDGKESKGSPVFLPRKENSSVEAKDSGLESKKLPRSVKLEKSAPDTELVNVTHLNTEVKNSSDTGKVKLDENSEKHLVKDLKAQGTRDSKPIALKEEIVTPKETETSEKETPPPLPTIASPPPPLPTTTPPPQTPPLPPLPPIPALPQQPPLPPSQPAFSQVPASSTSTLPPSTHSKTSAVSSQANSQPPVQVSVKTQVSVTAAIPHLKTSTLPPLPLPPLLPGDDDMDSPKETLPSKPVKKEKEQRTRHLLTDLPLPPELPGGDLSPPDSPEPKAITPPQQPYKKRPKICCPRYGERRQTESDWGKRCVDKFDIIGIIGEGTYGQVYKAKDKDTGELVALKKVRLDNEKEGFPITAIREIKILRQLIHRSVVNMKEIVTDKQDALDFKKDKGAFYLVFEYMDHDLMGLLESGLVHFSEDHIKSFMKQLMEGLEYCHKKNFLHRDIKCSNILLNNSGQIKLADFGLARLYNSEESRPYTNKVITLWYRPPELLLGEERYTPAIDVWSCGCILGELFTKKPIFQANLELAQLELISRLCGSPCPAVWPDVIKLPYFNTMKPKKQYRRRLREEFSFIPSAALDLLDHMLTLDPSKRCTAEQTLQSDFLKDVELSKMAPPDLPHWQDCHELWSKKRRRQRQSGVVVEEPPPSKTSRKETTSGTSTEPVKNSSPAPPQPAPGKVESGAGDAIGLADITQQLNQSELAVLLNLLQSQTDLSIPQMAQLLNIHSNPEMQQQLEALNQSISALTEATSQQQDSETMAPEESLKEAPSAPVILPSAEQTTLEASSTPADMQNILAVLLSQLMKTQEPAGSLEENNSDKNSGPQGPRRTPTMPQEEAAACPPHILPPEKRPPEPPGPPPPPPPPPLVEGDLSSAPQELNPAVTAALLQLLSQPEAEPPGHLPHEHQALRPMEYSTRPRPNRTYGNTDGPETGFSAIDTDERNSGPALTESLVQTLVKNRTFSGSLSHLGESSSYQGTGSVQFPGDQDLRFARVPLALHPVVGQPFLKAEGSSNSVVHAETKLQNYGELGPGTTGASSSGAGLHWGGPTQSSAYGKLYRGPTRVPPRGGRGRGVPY
T3 sequence (Q66K64 whole entry): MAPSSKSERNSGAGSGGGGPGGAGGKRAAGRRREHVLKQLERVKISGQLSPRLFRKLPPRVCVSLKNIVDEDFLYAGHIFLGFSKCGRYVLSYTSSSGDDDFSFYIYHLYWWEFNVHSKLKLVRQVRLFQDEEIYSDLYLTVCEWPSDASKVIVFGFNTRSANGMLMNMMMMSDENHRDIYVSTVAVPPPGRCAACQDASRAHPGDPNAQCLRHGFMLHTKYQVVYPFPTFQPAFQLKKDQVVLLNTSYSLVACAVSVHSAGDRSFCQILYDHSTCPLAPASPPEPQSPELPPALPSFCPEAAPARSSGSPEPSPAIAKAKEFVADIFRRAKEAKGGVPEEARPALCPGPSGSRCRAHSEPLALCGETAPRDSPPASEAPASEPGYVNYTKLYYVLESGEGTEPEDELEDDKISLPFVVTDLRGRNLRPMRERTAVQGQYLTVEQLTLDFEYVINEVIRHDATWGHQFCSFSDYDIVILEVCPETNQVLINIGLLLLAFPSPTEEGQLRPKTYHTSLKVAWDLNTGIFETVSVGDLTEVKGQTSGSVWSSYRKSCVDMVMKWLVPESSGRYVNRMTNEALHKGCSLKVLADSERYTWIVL
T2 sequence (Q14498 2-530 limits assumed): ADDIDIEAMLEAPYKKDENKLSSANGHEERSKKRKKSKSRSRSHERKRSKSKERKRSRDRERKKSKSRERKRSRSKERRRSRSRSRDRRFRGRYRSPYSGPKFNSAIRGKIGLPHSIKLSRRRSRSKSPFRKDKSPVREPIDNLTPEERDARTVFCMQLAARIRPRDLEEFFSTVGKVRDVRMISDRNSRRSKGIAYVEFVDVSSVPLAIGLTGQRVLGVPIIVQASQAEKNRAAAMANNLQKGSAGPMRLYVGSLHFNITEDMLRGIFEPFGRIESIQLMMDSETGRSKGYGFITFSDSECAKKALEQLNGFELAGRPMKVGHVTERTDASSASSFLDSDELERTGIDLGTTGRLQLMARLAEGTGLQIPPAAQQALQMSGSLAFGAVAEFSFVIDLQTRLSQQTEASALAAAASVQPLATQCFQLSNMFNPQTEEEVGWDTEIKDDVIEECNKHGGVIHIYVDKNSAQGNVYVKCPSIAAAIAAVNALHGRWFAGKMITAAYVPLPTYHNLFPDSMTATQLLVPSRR
T2 sequence (Q66K64 whole entry): as the sequence (Q66K64 whole entry) above
T2 sequence (Q16531 2-1140 partner limits assumed): as the sequence (Q16531 2-1140 limits assumed) above

Nc1ccc2[nH]c(SCC(=O)Nc3ccc(Cl)cn3)nc2c1 [IC021313.2^NH2]
interacting proteins in bead pulldown (immunoblot) [1]: both CCNK and DDB1 as interacting proteins

Cc1ccc(S(=O)(=O)N/N=C/c2cc(Br)ccc2O)cc1 [dCeMM.1]
sensitivity upon inactivation of DCAF15 [2]: pronounced resistance
RBM39 destabilization (Western blot), DCAF15-dependent [3]: significant destabilization of RBM39 levels
anti-proliferative effect upon mutation of UBE2M [4]: loses anti-proliferative activity
DCAF15 stabilization (relative luciferase signal over time) [5]: significant DCAF15 stabilization

C#CCCC1(CCC(=O)Nc2ccc3[nH]c(SCC(=O)Nc4ccc(Cl)cn4)nc3c2)N=N1 [IC021313.2^PAP]
proteins enriched in photo-affinity pulldown (immunoblot) [6]: DDB1 and CCNK were enriched in the eluates
